We go through 8 compounds from ChEMBL document CHEMBL1201862, “PubChem BioAssay data set” (2004).

Active and inactive are the calls of the source.

The nature of assay [1]: Luminescence Cell-Based Dose Confirmation HTS to Identify Inhibitors of Platelet Dense Granule Release. [Related pubchem assays: 1663 (Primary HTS), 1678 (Summary of Project)]. The class given is functional.
Assay [2] can be described thus: HepG2 cell cytotoxicity, dose response, cytotoxicity control, ATP luminescence, cherry-pick, activator set 2 (AID 1053143). The class given is functional, cell-based.
For assay [3], the target named is Luciferin 4-monooxygenase (Photinus pyralis, UniProt P08659). Briefly: firefly luciferase enzyme inhibitors, dose response, biochemical, luminescence (AID 1891).
Luciferin 4-monooxygenase, sequence (P08659 whole entry): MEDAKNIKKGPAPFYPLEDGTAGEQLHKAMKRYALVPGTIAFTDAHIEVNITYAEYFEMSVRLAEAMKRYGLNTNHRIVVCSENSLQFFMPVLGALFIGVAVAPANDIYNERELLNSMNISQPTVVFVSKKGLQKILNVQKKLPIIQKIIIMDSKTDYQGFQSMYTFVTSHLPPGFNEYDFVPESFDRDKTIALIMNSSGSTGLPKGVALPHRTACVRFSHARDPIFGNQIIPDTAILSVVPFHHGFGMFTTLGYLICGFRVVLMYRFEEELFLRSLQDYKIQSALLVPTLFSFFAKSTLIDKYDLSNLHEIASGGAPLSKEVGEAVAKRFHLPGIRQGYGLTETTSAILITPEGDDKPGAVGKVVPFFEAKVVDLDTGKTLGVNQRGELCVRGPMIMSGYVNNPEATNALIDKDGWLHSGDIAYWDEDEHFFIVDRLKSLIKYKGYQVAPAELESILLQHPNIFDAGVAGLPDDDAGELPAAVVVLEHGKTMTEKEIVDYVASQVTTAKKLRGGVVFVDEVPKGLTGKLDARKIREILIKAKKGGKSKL
Assay [4] can be described thus: inhibitors of fibronectin matrix deposition, dose response, AH1F cells, Alexa488-FN fluorescence, cherry-picks (AID 1035475). The class given is functional, cell-based.
Assay [5] addresses NAD-dependent protein deacylase sirtuin-5, mitochondrial (Homo sapiens, UniProt Q9NXA8). Briefly: SIRT5 deacylase inhibitors, dose response, biochemical, fluorescence imaging, cherry-pick, set 6 (AID 720597).
A short description of assay [6]: A Cell-Based Confirmatory Screen for Compounds that Inhibit VEEV, TC-83 (8). The class given is functional.
In assay [7] the target is T1, Rac GTPase-activating protein 1 (Homo sapiens, UniProt Q9H0H5).
T1 sequence (Q9H0H5 whole entry): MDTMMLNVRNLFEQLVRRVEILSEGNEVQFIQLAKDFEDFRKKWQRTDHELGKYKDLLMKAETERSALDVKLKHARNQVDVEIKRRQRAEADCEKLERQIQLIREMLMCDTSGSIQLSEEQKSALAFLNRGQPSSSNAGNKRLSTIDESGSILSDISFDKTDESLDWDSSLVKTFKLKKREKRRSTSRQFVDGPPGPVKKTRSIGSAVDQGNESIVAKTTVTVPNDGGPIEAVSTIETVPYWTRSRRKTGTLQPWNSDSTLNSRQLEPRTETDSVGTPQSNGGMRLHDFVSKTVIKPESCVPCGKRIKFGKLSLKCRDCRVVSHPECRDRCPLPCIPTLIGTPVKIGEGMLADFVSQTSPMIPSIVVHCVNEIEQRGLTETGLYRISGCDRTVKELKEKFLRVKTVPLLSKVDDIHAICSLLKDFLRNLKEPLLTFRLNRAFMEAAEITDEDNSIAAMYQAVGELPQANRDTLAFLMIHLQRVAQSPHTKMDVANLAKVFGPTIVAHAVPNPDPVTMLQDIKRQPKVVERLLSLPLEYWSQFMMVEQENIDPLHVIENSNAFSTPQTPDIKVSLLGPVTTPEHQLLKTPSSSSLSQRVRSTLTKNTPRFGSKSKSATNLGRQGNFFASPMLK
Briefly: MgcRacGAP GTPase-activating activity inhibitors, confirmation, biochemical, ADP Hunter fluorescence, primary and confirmatory (AID 624330). The class given is functional.

The target in a further assay is fMet-Leu-Phe receptor (Homo sapiens, UniProt P21462). Briefly: FPR ligands, dose response (AID 519). The assay is classed as functional.
fMet-Leu-Phe receptor, sequence (P21462 whole entry): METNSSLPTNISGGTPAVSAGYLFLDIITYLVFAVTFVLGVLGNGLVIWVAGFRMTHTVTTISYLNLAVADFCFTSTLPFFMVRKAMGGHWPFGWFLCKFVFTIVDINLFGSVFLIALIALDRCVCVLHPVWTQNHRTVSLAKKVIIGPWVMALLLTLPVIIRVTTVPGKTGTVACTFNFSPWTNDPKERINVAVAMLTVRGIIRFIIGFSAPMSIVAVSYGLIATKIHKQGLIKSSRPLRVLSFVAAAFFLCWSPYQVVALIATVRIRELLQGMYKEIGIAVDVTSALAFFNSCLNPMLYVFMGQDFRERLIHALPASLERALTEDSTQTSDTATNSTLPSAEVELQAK
Assay [8] is described as follows: A375 melanoma cell cytotoxicity, dose response, counter-screen for MITF inhibitor project, CellTiter-Glo luminescence, dry powder, set 2 (AID 624489).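 Further: actives are compounds lowering A375 viability meaning general cytotoxicity.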 Conditions: A-375. The assay is classed as functional, cell-based. (In general: A counterscreen serves to expose hits that act by an unwanted route or on another target.)
Assay [9] in a line: A375 melanoma cell viability loss, dose response, counter-screen for MITF inhibitor project, CellTiter-Glo luminescence, dry powder, set 4 (AID 624364).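 Further: A375 melanoma cells are MITF independent so this is a counter screen.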 The class given is functional, cell-based. Conditions: A-375.
Assay [10] concerns the target Tyrosyl-DNA phosphodiesterase 2 (Homo sapiens, UniProt O95551). In words: human TDP2 enzyme inhibitors, dose response, biochemical, epi absorbance, IC50 (AID 743297).
Assay [11] is described as follows: Shn3 3'UTR reporter inhibitors, dose response, cell-based, Clone20 osteoblasts, firefly luciferase, cherry-picked (AID 624132).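 Further: firefly luciferase luminescence from reporter carrying the Shn3 3'UTR in osteoblasts.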 The class given is functional.
Assay [12] is described as follows: control 3'UTR Renilla luciferase suppression, dose response, counter-screen for Shn3 inhibitor project, cell-based, Clone20-Shn3RL, cherry-picked (AID 624133). The assay is classed as functional.
Assay [13] in a line: reduction of Shn3 3'UTR firefly luciferase signal, dose response, Schnurri-3 inhibitor project, cell-based, Clone20 osteoblasts, cherry-pick, set 2 (AID 720490).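 Further: actives lower the luminescence signal as inhibitors.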 The class given is functional.
A short description of assay [14]: inhibitors of control Renilla luciferase reporter, dose response, counter-screen for Shn3 3'UTR targeting project, Clone20-Shn3RL cells, dual-Glo, cherry-pick, set 2 (AID 720724). The class given is functional, cell-based. Conditions: Dual-Go Shn3RL. On the technique in general: Reporter assays use an easily measured gene product as a stand-in for the process of interest.

Tyrosyl-DNA phosphodiesterase 2, sequence (O95551 whole entry): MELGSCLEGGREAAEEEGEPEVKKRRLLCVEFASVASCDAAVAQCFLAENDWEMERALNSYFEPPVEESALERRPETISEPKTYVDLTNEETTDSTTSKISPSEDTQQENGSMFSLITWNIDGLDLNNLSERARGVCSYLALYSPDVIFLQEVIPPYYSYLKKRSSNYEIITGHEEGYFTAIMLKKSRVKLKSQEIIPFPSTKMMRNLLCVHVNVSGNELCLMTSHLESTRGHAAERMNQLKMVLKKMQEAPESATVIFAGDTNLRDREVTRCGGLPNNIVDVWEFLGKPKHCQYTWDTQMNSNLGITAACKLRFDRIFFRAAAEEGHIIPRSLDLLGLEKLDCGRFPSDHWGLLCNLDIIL
NAD-dependent protein deacylase sirtuin-5, mitochondrial, sequence (Q9NXA8 whole entry): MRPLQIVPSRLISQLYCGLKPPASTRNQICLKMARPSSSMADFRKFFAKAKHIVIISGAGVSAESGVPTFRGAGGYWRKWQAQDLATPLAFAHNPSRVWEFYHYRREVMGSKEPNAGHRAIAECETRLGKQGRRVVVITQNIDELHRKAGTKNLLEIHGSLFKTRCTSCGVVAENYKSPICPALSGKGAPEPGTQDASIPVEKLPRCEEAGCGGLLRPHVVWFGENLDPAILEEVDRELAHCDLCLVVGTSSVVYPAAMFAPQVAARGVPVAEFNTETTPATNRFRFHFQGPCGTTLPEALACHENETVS

What is called EC50 is the concentration at which the effect is half-maximal. One may read the AC50 as the midpoint of the concentration-response curve, whichever way the signal moves. For the compound `Cc1ccccc1Nc1nc(N)c2ccccc2n1`, the results for the EC50 in assay [1] and in assay [3] were 3.1 µM (active) and 1.26 µM (active), respectively. In assay [2], the AC50 is 26 µM (active). Take `C[C@H]1CN([C@@H](C)CO)C(=O)c2cc(NC(=O)CCCN(C)C)ccc2O[C@@H]1CN(C)Cc1ccc(-c2ccccc2)cc1`: the AC50 in assay [4] was > 70 µM (inactive). On to `C[C@@H]1CN([C@@H](C)CO)C(=O)c2cc(NS(C)(=O)=O)ccc2O[C@@H](C)CCCCO[C@H]1CN(C)Cc1ccc(C(F)(F)F)cc1`, for which the AC50 in assay [5] was > 30 µM (inactive). What is called IC50 is the concentration at which inhibition is half-maximal. As to `CN1CCN(C)/C(=N/c2ccc(C#N)cc2C(=O)Nc2cccc(F)c2)C1`, the half-maximal inhibitory concentration (IC50) in assay [6] is 0.84 µM (active). The term Ki denotes a measure of affinity in units of concentration, obtained from inhibition or displacement. `CCCN=C(S)Nc1ccc(Nc2ccccc2)cc1`: the IC50 in assay [7] is 82.4 µM (active). For the same compound, the Ki at fMet-Leu-Phe receptor is > 66.7 µM (inactive). For `O=C1C(Nc2ccccc2)=C(N2CCSCC2)C(=O)c2ccccc21`, the AC50 in assay [8] was 69.3 µM (active); in assay [9] it was > 70 µM (inactive).

Consider `COc1ccc(-n2[nH]c(C)cc2=O)cc1`, for which the IC50 in [10] is > 128 µM (inactive). For the compound `CCOc1ccc(Cn2nnc(C(=O)Nc3cc(OC)cc(OC)c3)c2N)cc1`, the AC50 in assay [11] is 5.3 µM (active); in assay [12] it was 26.9 µM (active); in assay [13], 9.37 µM (active); in assay [14] it was 38.5 µM (active).
